Results on nine compounds are retold here after ChEMBL document CHEMBL1649310, “Complete nucleotide sequence of Klebsiella pneumoniae multidrug resistance plasmid pKP048, carrying blaKPC-2, blaDHA-1, qnrB4, and armA” (2010).

Format in all cases: functional
Assay [1] concerns Escherichia coli. Description: Antimicrobial activity against lacZ-negative, Nalidixic acid-, rifampicin-resistant Escherichia coli EC600 by Etest in presence of beta-lactamase inhibitor Tazobactam.
For assay [2], the system named is Escherichia coli. The assay is described as follows: Antimicrobial activity against Escherichia coli isolate CKP048 transconjugant harboring beta-lactamase KPC-2, DHA-1, qnrB4 and armA by Etest in presence of beta-lactamase inhibitor Tazobactam.
Assay [3] has as its system Klebsiella pneumoniae. Description: Antimicrobial activity against Klebsiella pneumoniae isolate 048 expressing beta-lactamase KPC-2, DHA-1, qnrB4 and armA by Etest in presence of beta-lactamase inhibitor Tazobactam.
The subject of assay [4] is Klebsiella pneumoniae. The assay is described as follows: Antimicrobial activity against Klebsiella pneumoniae isolate 048 expressing beta-lactamase KPC-2, DHA-1, qnrB4 and armA by Etest.
The subject of assay [5] is Escherichia coli. Description: Antimicrobial activity against lacZ-negative, Nalidixic acid-, rifampicin-resistant Escherichia coli EC600 by Etest.
Assay [6] has as its system Escherichia coli. The assay is described as follows: Antimicrobial activity against Escherichia coli isolate CKP048 transconjugant harboring beta-lactamase KPC-2, DHA-1, qnrB4 and armA by Etest.

Usually MIC stands for the lowest concentration that inhibits growth of the organism.

Converted amounts (≈) assume the structure as drawn.

As for `CCN1CCN(C(=O)N[C@@H](C(=O)N[C@@H]2C(=O)N3[C@@H]2SC(C)(C)[C@@H]3C(=O)O)c2ccccc2)C(=O)C1=O` [PIPERACILLIN], the values for the MIC in assay [1], in assay [2] and in assay [3] were 2 µg/mL, over 256 µg/mL and over 256 µg/mL, respectively.
`C[C@@H](O)[C@H]1C(=O)N2C(C(=O)O)=C(S[C@@H]3CN[C@H](C(=O)N(C)C)C3)[C@H](C)[C@H]12` [MEROPENEM]: the values for the MIC in assay [4], in assay [5] and in assay [6] were over 32 µg/mL, 0.094 µg/mL (≈ 0.245 µM) and 2 µg/mL (≈ 5.22 µM), respectively.
Turning to `CO[C@@]1(NC(=O)Cc2cccs2)C(=O)N2C(C(=O)O)=C(COC(N)=O)CS[C@@H]21` [CEFOXITIN], the MIC in assay [4] was 256 µg/mL (≈ 599 µM); in assay [5] it was 2 µg/mL (≈ 4.68 µM); in assay [6], 128 µg/mL (≈ 299 µM).
For the compound `CC(C)(O/N=C(\C(=O)N[C@@H]1C(=O)N2C(C(=O)[O-])=C(C[n+]3ccccc3)CS[C@H]12)c1csc(N)n1)C(=O)O` [CEFTAZIDIME], the MIC in assay [4] turned out to be 96 µg/mL (≈ 176 µM); in assay [5], 0.064 µg/mL (≈ 0.117 µM); in assay [6], 32 µg/mL (≈ 58.5 µM).
`CN(C)c1cc(NC(=O)CNC(C)(C)C)c(O)c2c1C[C@H]1C[C@H]3[C@H](N(C)C)C(O)=C(C(N)=O)C(=O)[C@@]3(O)C(O)=C1C2=O` [TIGECYCLINE]: the MIC was determined as 0.38 µg/mL (≈ 0.649 µM) in assay [4], 0.125 µg/mL (≈ 0.213 µM) in assay [5] and 0.125 µg/mL (≈ 0.213 µM) in assay [6].
As for `NCC[C@H](O)C(=O)N[C@@H]1C[C@H](N)[C@@H](O[C@H]2O[C@H](CN)[C@@H](O)[C@H](O)[C@H]2O)[C@H](O)[C@H]1O[C@H]1O[C@H](CO)[C@@H](O)[C@H](N)[C@H]1O` [AMIKACIN], the MIC was over 256 µg/mL in assay [4], 1 µg/mL (≈ 1.71 µM) in assay [5] and over 256 µg/mL in assay [6].
As for COLISTIN, the values for the MIC in assay [4], in assay [5] and in assay [6] were 0.38 µg/mL, 0.25 µg/mL and 0.38 µg/mL, respectively.
`C[C@@H](O)[C@H]1C(=O)N2C(C(=O)O)=C(SCCNC=N)C[C@H]12` [IMIPENEM ANHYDROUS]: the MIC in assay [4] was over 32 µg/mL; in assay [5] it was 0.25 µg/mL (≈ 0.835 µM); in assay [6], 3 µg/mL (≈ 10 µM).
Regarding `C[C@@H](O)[C@H]1C(=O)N2C(C(=O)O)=C(S[C@@H]3CN[C@H](C(=O)Nc4cccc(C(=O)O)c4)C3)[C@H](C)[C@H]12`, the values for the MIC in assay [4], in assay [5] and in assay [6] were 32 µg/mL (≈ 67.3 µM), 0.016 µg/mL (≈ 0.0336 µM) and 8 µg/mL (≈ 16.8 µM), respectively.
